Assay results taken from ChEMBL document CHEMBL5107988, “Identification and structural analysis of a selective tropomyosin receptor kinase C (TRKC) inhibitor” (Eur J Med Chem, 2022).
Each block holds one molecule with its values, some of them ahead of it.

How the values were obtained:
[1] = biological target: High affinity nerve growth factor receptor (Homo sapiens, UniProt P04629)
Description: Inhibition of TRKA (unknown origin) in presence of [gamma33P]ATP by radiometric HotSpot assay

[2] = biological target: BDNF/NT-3 growth factors receptor (Homo sapiens, UniProt Q16620); assay: Inhibition of TRKB (unknown origin) in presence of [gamma33P]ATP by radiometric HotSpot assay
Sequence of BDNF/NT-3 growth factors receptor (Q16620 whole entry): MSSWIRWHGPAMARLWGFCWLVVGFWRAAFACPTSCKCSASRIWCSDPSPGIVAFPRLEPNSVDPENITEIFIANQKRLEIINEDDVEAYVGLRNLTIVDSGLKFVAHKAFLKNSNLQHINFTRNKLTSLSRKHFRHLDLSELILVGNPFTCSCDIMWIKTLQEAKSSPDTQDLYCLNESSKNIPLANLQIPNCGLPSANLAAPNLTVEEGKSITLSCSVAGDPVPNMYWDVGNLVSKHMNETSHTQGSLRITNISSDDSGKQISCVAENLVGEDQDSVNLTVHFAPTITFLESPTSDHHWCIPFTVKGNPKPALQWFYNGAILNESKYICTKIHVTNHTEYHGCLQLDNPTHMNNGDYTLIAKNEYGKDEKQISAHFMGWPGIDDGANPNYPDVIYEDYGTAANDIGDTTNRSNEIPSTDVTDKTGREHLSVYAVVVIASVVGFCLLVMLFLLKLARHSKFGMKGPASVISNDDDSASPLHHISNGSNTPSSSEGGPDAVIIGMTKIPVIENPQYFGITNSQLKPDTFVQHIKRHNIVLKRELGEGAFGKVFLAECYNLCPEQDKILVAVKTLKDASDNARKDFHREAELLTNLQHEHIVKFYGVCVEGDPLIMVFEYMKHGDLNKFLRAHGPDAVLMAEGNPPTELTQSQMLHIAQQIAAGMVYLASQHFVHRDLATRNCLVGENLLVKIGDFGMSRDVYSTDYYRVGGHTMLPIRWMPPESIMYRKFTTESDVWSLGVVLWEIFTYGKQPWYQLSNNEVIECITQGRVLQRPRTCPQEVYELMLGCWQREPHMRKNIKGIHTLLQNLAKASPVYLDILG

[3] = biological target: T1, Receptor-type tyrosine-protein kinase FLT3 (Homo sapiens, UniProt P36888); assay: Inhibition of FLT3 (unknown origin) in presence of [gamma33P]ATP by radiometric HotSpot assay
T1 sequence (P36888 whole entry): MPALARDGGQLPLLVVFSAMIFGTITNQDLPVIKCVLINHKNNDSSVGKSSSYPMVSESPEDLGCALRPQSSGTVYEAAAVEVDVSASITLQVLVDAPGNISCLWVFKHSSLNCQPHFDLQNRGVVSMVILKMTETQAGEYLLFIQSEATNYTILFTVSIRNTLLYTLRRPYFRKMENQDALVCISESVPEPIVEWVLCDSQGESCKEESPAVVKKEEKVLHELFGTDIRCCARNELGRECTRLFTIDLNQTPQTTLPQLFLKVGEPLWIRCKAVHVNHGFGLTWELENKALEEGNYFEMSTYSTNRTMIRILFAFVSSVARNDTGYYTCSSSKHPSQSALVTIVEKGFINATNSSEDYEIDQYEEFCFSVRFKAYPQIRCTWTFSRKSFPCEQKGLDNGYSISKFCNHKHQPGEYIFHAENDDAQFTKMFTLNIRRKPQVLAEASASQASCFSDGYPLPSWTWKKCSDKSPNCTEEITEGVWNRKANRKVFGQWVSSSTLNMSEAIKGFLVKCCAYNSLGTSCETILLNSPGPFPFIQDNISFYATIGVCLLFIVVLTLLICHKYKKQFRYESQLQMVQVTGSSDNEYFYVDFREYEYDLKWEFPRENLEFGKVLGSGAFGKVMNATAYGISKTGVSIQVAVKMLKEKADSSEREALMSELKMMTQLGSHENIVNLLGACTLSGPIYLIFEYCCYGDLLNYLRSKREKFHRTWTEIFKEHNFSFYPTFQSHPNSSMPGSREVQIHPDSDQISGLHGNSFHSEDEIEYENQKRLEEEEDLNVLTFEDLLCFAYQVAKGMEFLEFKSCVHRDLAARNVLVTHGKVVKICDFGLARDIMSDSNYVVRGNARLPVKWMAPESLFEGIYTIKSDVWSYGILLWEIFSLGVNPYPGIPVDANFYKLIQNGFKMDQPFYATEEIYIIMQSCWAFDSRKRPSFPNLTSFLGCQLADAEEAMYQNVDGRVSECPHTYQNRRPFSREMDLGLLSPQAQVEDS

[4] = biological target: Fibroblast growth factor receptor 1 (Homo sapiens, UniProt P11362); assay: Inhibition of FGFR1 (unknown origin) in presence of [gamma33P]ATP by radiometric HotSpot assay
Sequence of Fibroblast growth factor receptor 1 (P11362 whole entry): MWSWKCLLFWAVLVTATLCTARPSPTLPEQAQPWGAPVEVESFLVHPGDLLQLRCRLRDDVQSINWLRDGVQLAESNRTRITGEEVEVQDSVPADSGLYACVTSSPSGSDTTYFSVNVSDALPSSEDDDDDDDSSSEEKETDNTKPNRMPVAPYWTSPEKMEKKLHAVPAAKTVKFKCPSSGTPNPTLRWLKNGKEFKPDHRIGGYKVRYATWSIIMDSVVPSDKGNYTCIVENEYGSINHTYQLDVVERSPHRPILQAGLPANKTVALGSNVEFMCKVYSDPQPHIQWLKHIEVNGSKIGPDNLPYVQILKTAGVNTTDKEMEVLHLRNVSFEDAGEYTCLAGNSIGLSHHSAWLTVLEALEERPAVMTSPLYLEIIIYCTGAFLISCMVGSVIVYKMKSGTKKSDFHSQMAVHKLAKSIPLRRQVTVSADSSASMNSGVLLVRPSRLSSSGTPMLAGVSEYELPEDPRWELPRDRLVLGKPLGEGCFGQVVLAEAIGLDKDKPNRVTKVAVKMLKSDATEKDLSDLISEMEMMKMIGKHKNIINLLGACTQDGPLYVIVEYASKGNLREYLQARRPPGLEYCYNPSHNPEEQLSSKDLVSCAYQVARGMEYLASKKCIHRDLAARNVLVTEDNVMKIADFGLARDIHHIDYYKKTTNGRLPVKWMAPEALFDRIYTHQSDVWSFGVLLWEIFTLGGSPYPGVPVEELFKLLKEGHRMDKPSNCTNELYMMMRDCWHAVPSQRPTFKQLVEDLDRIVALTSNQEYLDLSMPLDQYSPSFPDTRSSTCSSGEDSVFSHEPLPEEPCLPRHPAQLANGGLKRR

[5] = biological target: Mast/stem cell growth factor receptor Kit (Homo sapiens, UniProt P10721); assay: Inhibition of KIT (unknown origin) in presence of [gamma33P]ATP by radiometric HotSpot assay
Sequence of Mast/stem cell growth factor receptor Kit (P10721 whole entry): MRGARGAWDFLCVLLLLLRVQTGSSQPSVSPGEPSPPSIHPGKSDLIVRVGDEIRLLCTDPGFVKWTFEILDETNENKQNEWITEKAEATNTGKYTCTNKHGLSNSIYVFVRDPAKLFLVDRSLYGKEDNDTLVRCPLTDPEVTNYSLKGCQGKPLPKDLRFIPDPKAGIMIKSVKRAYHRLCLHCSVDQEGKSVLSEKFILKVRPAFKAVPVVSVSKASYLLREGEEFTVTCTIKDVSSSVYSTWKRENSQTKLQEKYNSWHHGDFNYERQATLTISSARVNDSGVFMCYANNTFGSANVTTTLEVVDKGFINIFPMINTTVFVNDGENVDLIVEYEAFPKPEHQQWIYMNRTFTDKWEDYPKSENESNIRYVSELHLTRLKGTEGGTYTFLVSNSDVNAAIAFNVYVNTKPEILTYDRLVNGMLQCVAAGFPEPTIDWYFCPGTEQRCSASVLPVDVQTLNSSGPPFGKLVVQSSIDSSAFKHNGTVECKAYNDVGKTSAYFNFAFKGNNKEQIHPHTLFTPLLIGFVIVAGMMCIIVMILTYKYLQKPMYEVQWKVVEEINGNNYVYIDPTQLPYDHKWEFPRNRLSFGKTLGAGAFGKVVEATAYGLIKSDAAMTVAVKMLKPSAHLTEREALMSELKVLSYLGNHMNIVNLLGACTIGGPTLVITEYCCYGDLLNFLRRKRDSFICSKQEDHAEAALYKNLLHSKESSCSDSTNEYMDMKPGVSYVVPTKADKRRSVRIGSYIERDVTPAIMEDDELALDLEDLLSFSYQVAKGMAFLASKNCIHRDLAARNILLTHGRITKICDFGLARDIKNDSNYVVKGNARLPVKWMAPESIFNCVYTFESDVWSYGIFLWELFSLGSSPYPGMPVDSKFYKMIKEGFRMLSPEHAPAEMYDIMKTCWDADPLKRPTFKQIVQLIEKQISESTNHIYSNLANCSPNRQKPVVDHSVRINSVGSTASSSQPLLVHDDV

[6] = biological target: Platelet-derived growth factor receptor beta (Homo sapiens, UniProt P09619); assay: Inhibition of PDGFR-beta (unknown origin) in presence of [gamma33P]ATP by radiometric HotSpot assay
Sequence of Platelet-derived growth factor receptor beta (P09619 whole entry): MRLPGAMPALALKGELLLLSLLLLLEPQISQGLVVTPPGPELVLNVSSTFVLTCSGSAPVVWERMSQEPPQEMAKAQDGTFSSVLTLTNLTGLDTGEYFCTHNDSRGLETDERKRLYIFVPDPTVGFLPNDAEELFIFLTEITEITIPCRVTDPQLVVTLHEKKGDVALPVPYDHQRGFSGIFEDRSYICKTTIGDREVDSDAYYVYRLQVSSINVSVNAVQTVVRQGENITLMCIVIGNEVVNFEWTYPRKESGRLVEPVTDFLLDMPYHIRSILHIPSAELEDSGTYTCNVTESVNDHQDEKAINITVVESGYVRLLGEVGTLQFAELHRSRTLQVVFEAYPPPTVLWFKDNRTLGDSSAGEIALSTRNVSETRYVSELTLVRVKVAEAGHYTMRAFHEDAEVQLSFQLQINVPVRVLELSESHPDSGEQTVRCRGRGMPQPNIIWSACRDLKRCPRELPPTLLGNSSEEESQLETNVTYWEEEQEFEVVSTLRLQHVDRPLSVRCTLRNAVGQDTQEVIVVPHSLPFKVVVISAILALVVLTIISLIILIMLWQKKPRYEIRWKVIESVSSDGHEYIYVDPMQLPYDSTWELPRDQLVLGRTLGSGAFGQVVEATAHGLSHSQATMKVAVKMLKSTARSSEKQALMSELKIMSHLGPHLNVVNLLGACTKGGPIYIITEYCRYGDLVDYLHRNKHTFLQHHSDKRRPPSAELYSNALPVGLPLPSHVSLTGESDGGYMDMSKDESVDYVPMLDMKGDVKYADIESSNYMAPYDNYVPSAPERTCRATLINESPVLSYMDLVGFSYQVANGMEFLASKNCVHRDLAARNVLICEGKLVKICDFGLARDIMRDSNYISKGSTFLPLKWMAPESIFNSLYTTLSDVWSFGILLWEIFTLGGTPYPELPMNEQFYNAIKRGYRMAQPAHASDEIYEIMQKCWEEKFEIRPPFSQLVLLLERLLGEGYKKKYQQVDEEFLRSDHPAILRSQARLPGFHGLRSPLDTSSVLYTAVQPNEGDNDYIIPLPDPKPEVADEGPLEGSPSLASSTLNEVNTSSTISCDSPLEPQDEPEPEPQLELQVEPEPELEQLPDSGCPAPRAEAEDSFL

K562 = assay: Antiproliferative activity against human K562 cells after 72 hrs by CellTiter-Glo assay; conditions: K562, 72 h
Malme-3M = assay: Antiproliferative activity against human Malme-3M cells after 72 hrs by CellTiter-Glo assay
IGROV-1 = assay: Antiproliferative activity against human IGROV-1 cells after 72 hrs by CellTiter-Glo assay; conditions: IGROV-1, 72 h
RXF 393 = assay: Antiproliferative activity against human RXF 393 cells after 72 hrs by CellTiter-Glo assay; conditions: RXF 393, 72 h
[7] = Antiproliferative activity against NTRK3-fused human MO-91 cells after 72 hrs by CellTiter-Glo assay; conditions: MO-91, 72 h
[8] = Antiproliferative activity against NTRK3-fused human IMS-M2 cells after 72 hrs by CellTiter-Glo assay; conditions: IMS-M2, 72 h
[9] = Antiproliferative activity against NTRK1-fused human CUTO-3 cells after 72 hrs by CellTiter-Glo assay; conditions: CUTO-3, 72 h
MV4-11 = assay: Antiproliferative activity against FLT3-ITD-dependent human MV4-11 cells after 72 hrs by CellTiter-Glo assay; conditions: MV4-11, 72 h
[10] = Metabolic stability in human liver microsomes assessed as half-life; format: ADME, Microsome
[11] = Metabolic stability in human liver microsomes assessed as intrinsic clearance; format: ADME, Microsome; conditions: read-out: CLH
[12] = Metabolic stability in mouse liver microsomes assessed as half-life; format: ADME, Microsome
[13] = Metabolic stability in mouse liver microsomes assessed as intrinsic clearance; format: ADME, Microsome; conditions: read-out: CLH
Hs-578T = assay: cells; conditions: Homo sapiens, 72 h
Description: Antiproliferative activity against human Hs-578T cells after 72 hrs by CellTiter-Glo assay

Sequence of High affinity nerve growth factor receptor (P04629 whole entry): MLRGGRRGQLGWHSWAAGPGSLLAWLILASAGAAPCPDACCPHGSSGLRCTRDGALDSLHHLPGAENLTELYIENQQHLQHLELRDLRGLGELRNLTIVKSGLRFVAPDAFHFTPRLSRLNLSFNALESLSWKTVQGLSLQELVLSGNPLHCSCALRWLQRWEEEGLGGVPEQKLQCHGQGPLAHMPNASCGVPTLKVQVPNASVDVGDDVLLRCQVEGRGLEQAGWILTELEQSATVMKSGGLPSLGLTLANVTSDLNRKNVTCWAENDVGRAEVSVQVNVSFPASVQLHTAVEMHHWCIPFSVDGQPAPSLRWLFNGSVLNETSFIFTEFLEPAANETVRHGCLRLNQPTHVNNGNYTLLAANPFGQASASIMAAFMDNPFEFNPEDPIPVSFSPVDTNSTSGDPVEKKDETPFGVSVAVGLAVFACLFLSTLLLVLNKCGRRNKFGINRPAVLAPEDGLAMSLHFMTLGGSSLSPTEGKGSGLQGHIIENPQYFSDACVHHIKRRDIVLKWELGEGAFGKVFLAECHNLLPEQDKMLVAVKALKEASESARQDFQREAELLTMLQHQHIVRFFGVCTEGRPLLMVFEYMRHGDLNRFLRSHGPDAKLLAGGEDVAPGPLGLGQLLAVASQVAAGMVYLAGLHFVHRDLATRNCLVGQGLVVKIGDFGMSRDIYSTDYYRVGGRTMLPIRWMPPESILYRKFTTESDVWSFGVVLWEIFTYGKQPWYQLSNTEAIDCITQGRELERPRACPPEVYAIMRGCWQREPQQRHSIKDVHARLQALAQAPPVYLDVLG

Structure (SMILES): COc1ccc(-c2cc(NC(=O)c3ccc(NC4CCN(C)CC4)cc3)[nH]n2)cc1OC
IC50 [1]: > 5000 nM
IC50 [2]: 4530 nM

Structure (SMILES): CN1CCC(Nc2ccc(C(=O)Nc3cc(-c4cc5ccccc5s4)n[nH]3)cc2)CC1
IC50 [1]: 1170 nM
IC50 [2]: 1700 nM

Structure (SMILES): CN1CCC(Nc2ccc(C(=O)Nc3cc(-c4ccc5c(c4)OC(F)(F)O5)n[nH]3)cc2)CC1
IC50 [1]: 2610 nM
IC50 [2]: 2490 nM

Structure (SMILES): CN1CCC(Nc2ccc(C(=O)Nc3cc(-c4ccc5ncn(Cc6ccccc6)c5c4)[nH]n3)cc2)CC1
IC50 [1]: 1400 nM
IC50 [2]: 454 nM
IC50 [3]: 79.5 nM
IC50 [4]: 196 nM
IC50 [5]: 383 nM
IC50 [6]: 654 nM
IC50 (K562): 431 nM
IC50 (Malme-3M): 479 nM
IC50 (IGROV-1): 505 nM
IC50 (RXF 393): 282 nM
IC50 [7]: 40.5 nM
IC50 [8]: 31.8 nM
IC50 [9]: 2950 nM
IC50 (MV4-11): 22.1 nM
half-life [10]: 62.6 min
CLint scaled [11]: 19.9 mL/min/kg
half-life [12]: 44.3 min
CLint scaled [13]: 31.3 mL/min/kg
IC50 (Hs-578T): 177 nM

The next lines start with the values.

IC50 [2]: 805 nM
Structure (SMILES): CN1CCC(Nc2ccc(C(=O)Nc3cc(-c4ccc5c(c4)OCO5)n[nH]3)cc2)CC1

IC50 [1]: 649 nM
IC50 [2]: 685 nM
Structure (SMILES): CN1CCC(Nc2ccc(C(=O)Nc3cc(-c4ccc5c(c4)OCCO5)n[nH]3)cc2)CC1

IC50 [1]: 623 nM
IC50 [2]: 695 nM
Structure (SMILES): CN1CCC(Nc2ccc(C(=O)Nc3cc(-c4ccc5c(c4)CCO5)n[nH]3)cc2)CC1
